The subject of one data set is ABCG2 (Gln141Lys mutant). Put plainly: Cytotoxicity by sulforhodamine B dye-staining, clone 3-28 (ABCG2 Gln141Lys). The note with it: pig. How it is done: (§1) Among the polymorphic mutations identified in Example 1, two mutations—G34A and C421A—having a high possibility to affect the function of the ABCG2 polypeptide were prepared and introduced into animal cells as an endeavor to analyze their functions. Preparation of the mutated ABCG2 genes was conducted by PCR and a point mutation was introduced. […] As a control, a plasmid expressing the wild type (WT) ABCG2 and the vector plasmid pcDNA3.1(+) alone without the ABCG2 gene were used and those four kinds of expression plasmids were introduced to an animal cell (porcine kidney cell line) LLC-PK1 by lipofection method (Lipofectamine; Gibco BRL). Stable transfectants were selected with 1,500 μg/ml of Geneticin (Gibco BRL) for two weeks and cell lines were established. To determine the expressed level of ABCG2 in each cell line, total RNA was extracted from each transfectant cells and HeLa cells with Trizol (Gibco BRL). Seven microgram of the total RNA extracted from each clone of cell and full length ABCG2 cDNA (2.2 kb) probe labeled with ^32P were used for Northern hybridization. […]
(§2) All of the incubations were carried out at 37° C. under the humidified atmosphere containing 5% of carbon dioxide. The cytotoxicity of anticancer drugs was determined by sulforhodamine B dye-staining method and compared with each other. […]
For orientation: The SRB assay estimates cell density from bound dye.

Data set [1] deals with LLC-PK1 cell line (1-58) expressing the wild type ABCG2. Put plainly: Cytotoxicity by sulforhodamine B dye-staining, clone 1-58 (wild type ABCG2). The note with it: among the four transfectant clones C4, 1-58, 2-51, 3-28. The protocol:
as §1, §2

The subject of a further data set is ABCG2 (wild type). The description is as above. The settings on record: pig. How it is done:
as §1, §2

The test system of a further data set is ABCG2 (Val12Met mutant). Put plainly: Cytotoxicity by sulforhodamine B dye-staining, clone 2-51 (ABCG2 Val12Met). The note with it: pig. How it is done: as §1, §2
Data set [2] deals with LLC-PK1 cell line (C4) transfected with vector alone. As to the kind of experiment: Cytotoxicity by sulforhodamine B dye-staining, clone C4 (vector alone). The note with it: Sus scrofa, no ABCG2, 72 hours, 37° C., read-out: IC50 for cell viability. The data set is classed as cell-based, porcine. How it is done:
as §1, §2

One may read the IC50 as the concentration that inhibits the measured activity by half. For the compound `CC[C@@]1(O)C(=O)OCc2c1cc1n(c2=O)Cc2cc3ccccc3nc2-1` [Camptothecin, camptothecin], the results for the 50% inhibitory concentration (IC50) at 72 h in the data set on ABCG2 (Gln141Lys mutant), in the data set on ABCG2 (wild type) and in the data set on ABCG2 (Val12Met mutant) were 26.8 nM, 21.3 nM and 12.2 nM, respectively. Besides, in data set [1], the “difference in terms of the resistance among the cells” value is on record as “no significant difference”. The 50% inhibitory concentration (IC50) in data set [2] is 8.7 nM.

These data come from US20080182267A1, “METHOD FOR PREDICTING A DRUG TRANSPORT CAPABILITY BY ABCG2 POLYMORPHISMS” (BANYU PHARMACEUTICAL CO., Ltd., priority 2002, published 2008).
